# Data from patent US20230065562A1, “DUAL CONTROLS FOR THERAPEUTIC CELL ACTIVATION OR ELIMINATION” (Bellicum Pharmaceuticals, Inc., priority 2015, published 2023).
# Changes are numbered by the printed parent chain. Names and notes keep the numbering of the source. “Also recorded” adds a separate entry of the source. Where a SMILES comes first, the peptide text is derived from it. Where no end group is shown, it is not given here. The star is where a group is joined. Cbz = O=C(OCc1ccccc1)*; CH2F = FC*
# B1: N405Q: modified iCasp9, N405Q (SEQ ID NO: 26) (protein)
# chain: GFGDVGALESLRGNADLAYILSMEPCGHCLIINNVNFCRESGLRTRTGSNIDCEKLRRRFSSLHFMVEVKGDLTAKKMVLALLELARQDHGALDCCVVVILSHGCQASHLQFPGAVYGTDGCPVSVEKIVNIFNGTSCPSLGGKPKLFFIQACGGEQKDHGFEVASTSPEDESPGSNPEPDATPFQEGLRTFDQLDAISSLPTPSDIFVSYSTFPGFVSWRDPKSGSWYVETLDDIFEQWAHSEDLQSLLLRVANAVSVKGIYKQMPGCFQFLRKKLFFKTS
# B2: D330A: modified iCasp9, D330A (SEQ ID NO: 24) (protein)
# chain: B1 chain with D196A, Q271N
# B3: F404Y: modified iCasp9, F404Y (protein)
# chain: VDGFGDVGALESLRGNADLAYILSMEPCGHCLIINNVNFCRESGLRTRTGSNIDCEKLRRRFSSLHFMVEVKGDLTAKKMVLALLELARQDHGALDCCVVVILSHGCQASHLQFPGAVYGTDGCPVSVEKIVNIFNGTSCPSLGGKPKLFFIQACGGEQKDHGFEVASTSPEDESPGSNPEPDATPFQEGLRTFDQLDAISSLPTPSDIFVSYSTFPGFVSWRDPKSGSWYVETLDDIFEQWAHSEDLQSLLLRVANAVSVKGIYKQMPGCYNFLRKKLFFKTSASRA
# How the values were obtained:
# Raji-GFP cells = assay: Raji-GFP coculture with CD19 CAR-T cells (flow cytometry); assay type: cell-based, human; details: 2 nM, E:T 1:5, seven days
# Description: After seven days of incubation the live cells were analyzed for the proportion of GFP labeled tumor cells (left) and for the proportion of total T cells (CD3^+, right) and transduced CAR-T cells (CD34, not shown).
# Raji cells (ATCC) labeled by stable expression of Green Fluorescent Protein (Raji-GFP) are a Burkitt's lymphoma cell line that express CD19 on the cell surface and are a target for an anti-CD19 CAR. 50000 Raji-GFP cells were seeded on a 24 well plate with 10000 CAR-T cells, a 1:5 E:T ratio. Media supernatant was taken at 48 hours for determination of cytokine release by activated CAR-T cells. The degree of tumor killing was determined at 7 days and 14 days by flow cytometry (Galeos, Beckman-Coulter) by the proportion of GFP labeled tumor cells and CD3 labeled T cells.
# NF-κB = NF-κB SeAP reporter assay of inducible MyD88/CD40 activity; assay type: cell-based
# Description: 293T cells were transfected with 1 μg of reporter construct NF-κB SeAP and 4 μg of the iMC+CARζ construct pBP0774 or the MC-rap-CAR construct pBP1440 using the GeneJuice protocol (Novagen). […] After 24 hours of further incubation SeAP activity was determined from cell supernatants.
# HEK 293T cells (1.5×10^5) were seeded on a 100-mm tissue culture dish in 10 mL DMEM4500, supplemented with glutamine, penicillin/streptomycin and 10% fetal calf serum. After 16-30 hours incubation, cells were transfected using Novagen's GeneJuice® protocol. Briefly, for each transfection, 0.5 mL OptiMEM was pipetted into a 1.5-mL microcentrifuge tube and 15 μL GeneJuice reagent added followed by 5 sec. vortexing. Samples were rested 5 minutes to settle the GeneJuice suspension. DNA (5 μg total) was added to each tube and mixed by pipetting up and down four times. Samples were allowed to rest for 5 minutes for GeneJuice-DNA complex formation and the suspension added dropwise to one dish of 293T cells. A typical transfection contains 1 μg NFkB-SEAP (5), 4 μg iMC+CARζ(pBP0774) or 4 μg MC-Rap-CAR (pBP1440) (1).
# 24 hours following transfection (4.1), 293T cells were split to 96-well plates and incubated with dilutions of dimerizing drugs. Briefly, 100 μL media was added to each well of a 96-well flat-bottom plate. Drugs were diluted in tubes to a concentration 4× the top concentration in the gradient to be place on the plate. […] 100 μL from each drug-containing well was then transferred to the adjacent well and the cycle repeated 10 times to produce a serial two-fold step gradient. The last wells were untreated and serve as a control for basal reporter activity. Transfected 293 cells were then trypsinized, washed with complete media, suspended in media and 100 μL aliquoted to each well containing drug (or no drug). Cells were incubated 24 hours.
# 24 hours after drug stimulation, 96-well plates were wrapped to prevent evaporation and incubated at 65° C. for 2 hours to inactivate endogenous and serum phosphatases while the heat-stable SeAP reporter remains (3, 12, 14). 100 μL samples from each well were loaded into individual wells of a 96-well assay plate with black sides. Samples were incubated with 0.5 mM 4-methylumbelliferyl phosphate (4-MUP) in 0.5 M diethanolamine at pH 10.0 for 4 to 16 hours. Phosphatase activity was measured by fluorescence with excitation at 355 nm and emission at 460 nm. Data was transferred to a Microsoft Excel spreadsheet for tabulation and graphed with GraphPad Prism.
# [1] = test system: transduced T cells (human PBMCs); assay: IL-6 ELISA as indicator of MC activity in transduced T cells; assay type: cell-based; details: pBP1440, 24 hours
# HPAC PSCA+ tumor cells = assay: T cell anti-tumor assay with HPAC-RFP cells (IncuCyte, ELISA); assay type: cell-based, human; details: 2 nM, E:T 1:30
# Description: PBMCs from donor 920 were activated and co-transduced with GFP-Ffluc and iMC+CARζ-T (189), i9+CARζ+MC (873), or FwtFRBC9/MC.FvFv (1308)-encoding vectors. […] (A & B) Two days post-seeding, culture supernatants were analyzed for IL-2, IL-6, and IFN-γ production by ELISA. […] Numbers of HPAC-RFP and T cell-GFP at the E:T 1:2 ratio was analyzed using the basic analyzer software for the IncuCyte at day 7 (Ci) and day 8 with 0 nM suicide drug (Cii) and 10 nM suicide drug (Ciii). Similar analysis was also performed at the 1:5 E:T ratio (D). (Note: the y-axis in Ci and Di are at log-scale).
# The HPAC PSCA^+ tumor cells were stably labeled with nuclear-localized RFP protein using the NucLight™ Red Lentivirus Reagent (Essen Bioscience, 4625). To set up the coculture, 4000 HPAC-RFP cells were seeded per well of 96-well plates in 100 μl of CTL medium without IL-2 for at least 4 hours to allow tumor cells to adhere. After transduction with the appropriate retrovirus and allowed to rest for at least 7 days in culture, T were seeded according to various E:T ratios to the HPAC-RFP-containing 96-well plates. […] Each plate was set up in duplicates, one plate to monitor with the IncuCyte cell imaging system and one plate for supernatant collection for ELISA assay on day 2. The plates were centrifuged for 5 min at 400×g and placed inside the IncuCyte (Essen Bioscience, Dual Color Model 4459) to monitor red fluorescence (and green fluorescence if T cells were labeled with GFP-Ffluc) every 2-3 hours for a total of 7 days at 10× objective. Image analysis was performed using the “HPAC-RFP_TcellsGFP_10×_MLD” processing definition. On day 7, HPAC-RFP cells were analyzed using the “Red Object Count (1/well)” metric. […] On day 8, Tcell-GFP cells were analyzed using the “Total Green Object Integrated Intensity” metric. Each condition was performed at least in duplicates and each well was imaged at 4 different locations.
# transduced T cells = assay: T cell caspase assay (IncuCyte, caspase 3/7 green reagent); assay type: cell-based, human
# Description: To enable detection of apoptosis using the IncuCyte instrument, 2 μM of IncuCyte™ Kinetic Caspase-3/7 Apoptosis reagent (Essen Bioscience, 4440) were add to each well to reach a total volume of 200 μl. The plates were centrifuged for 5 min at 400×g and placed inside the IncuCyte (Dual Color Model 4459) to monitor green fluorescence every 2-3 hours for a total of 48 hours at 10× objective. Image analysis was performed using the “Tcells_caspreagent_phase_green_10×_MLD” processing definition. The “Total Green Object Integrated Intensity” metric is used to quantify caspase activation. Each condition was performed in duplicates and each well was imaged at 4 different locations.
# To enable detection of apoptosis using the IncuCyte instrument, 2 μM of IncuCyte™ Kinetic Caspase-3/7 Apoptosis reagent (Essen Bioscience, 4440) was added to each well to reach a total volume of 200 μl. The plates were centrifuged for 5 min at 400×g and placed inside the IncuCyte (Dual Color Model 4459) to monitor green fluorescence every 2-3 hours for a total of 48 hours at 10× objective. Image analysis was performed using the “Tcells_caspreagent_phase_green_10×_MLD” processing definition. The “Total Green Object Integrated Intensity” metric and the “Phase Object Confluence (Percent)” were used to quantify caspase activation. Each condition was performed in duplicate and each well was imaged at 4 different locations.
# FRBL = FRBL (Homo sapiens, UniProt P42345+P62942, T2098L); assay: Rapalog binding to mutant FRB (FRBL/KLW) versus wild-type FRB
# Chain of FRBL (P42345 2012-2144 T2098L limits assumed): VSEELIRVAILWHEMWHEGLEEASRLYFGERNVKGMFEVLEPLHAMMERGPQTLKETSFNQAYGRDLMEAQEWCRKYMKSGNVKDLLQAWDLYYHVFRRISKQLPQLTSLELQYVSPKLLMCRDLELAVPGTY
# Chain of FRBL (P62942 2-108 limits assumed): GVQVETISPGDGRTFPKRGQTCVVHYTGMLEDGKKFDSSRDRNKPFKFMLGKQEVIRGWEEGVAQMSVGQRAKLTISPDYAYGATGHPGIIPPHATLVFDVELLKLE
# [2] = test system: iCasp9M-transduced EBV-CTLs; assay: CID-induced apoptosis / loss of GFP+ cells in iCasp9M-transduced EBV-CTLs; assay type: cell-based, human; details: 100 μM for 1 hour prior to adding CID
# Description: CID (AP20187; ARIAD Pharmaceuticals) at indicated concentrations was added to transfected 293T cells or transduced CTLs. Adherent and nonadherent cells were harvested and washed with annexin binding buffer (BD Pharmingen, San Jose, Calif.). Cells were stained with annexin-V and 7-amino-actinomycin D (7-AAD) for 15 minutes according to the manufacturer's instructions (BD Pharmingen). Within 1 hour after staining, cells were analyzed by flow cytometry using CellQuest software (Becton Dickinson).
# Inducible iCasp9M proficiency in CTLs was tested by monitoring loss of GFP-expressing cells after administration of CID; 91.3% (range, 89.5%-92.6% in 5 different donors) of GFP^+ cells were eliminated after a single 10-nM dose of CID. […] In all experiments, CTLs that survived CID treatment had low transgene expression with a 70% (range, 55%-82%) reduction in mean fluorescence intensity of GFP after CID. No further elimination of the surviving GFP^+ T cells could be obtained by an antigenic stimulation followed by a second 10-nM dose of CID. Therefore, the non-responding CTLs most likely expressed insufficient iCasp9M for functional activation by CID. To investigate the correlation between low levels of expression and CTL non-response to CID, CTLs were sorted for low, intermediate, and high expression of the linked marker gene GFP and mixed 1:1 with nontransduced CTLs from the same donor to allow for an accurate quantitation of the number of transduced T cells responding to CID-induced apoptosis.
# The number of transduced T cells eliminated increased with the level of GFP transgene expression (see FIGS. 4A, 4B and 4C). To determine the correlation between transgene expression and function of iCasp9M, iCasp9M IRES.GFP-transduced EBV-CTL were selected for low (mean 21), intermediate (mean 80) and high (mean 189) GFP expression. Selected T-cells were incubated overnight with 10 nM CID and subsequently stained with annexin V and 7-AAD. Indicated are the percentages of annexin V+/7-AAD− and annexin V+/7-AAD+ T−. Selected T-cells were mixed 1:1 with non-transduced T-cells and incubated with 10 nM CID following antigenic stimulation. Indicated is the percentage of residual GFP-positive T-cells on day 7.
# For GFPhigh-selected cells, 10 nM CID led to deletion of 99.1% (range, 98.7%-99.4%) of transduced cells. On the day of antigen stimulation, F-Casp9M.I.GFP-transduced CTLs were either untreated or treated with 10 nM CID. Seven days later, the response to CID was measured by flow cytometry for GFP. The percentage of transduced T cells was adjusted to 50% to allow for an accurate measurement of residual GFP^+ cells after CID treatment. The responses to CID in unselected (top row of and GFPhigh-selected CTLs (bottom row of was compared. The percentage of residual GFP^+ cells is indicated.
# After overnight incubation with 10 nM CID, F-Casp9M.I.GFPhigh-transduced T cells had apoptotic characteristics such as cell shrinkage and fragmentation by microscopic evaluation. […] A representative example of 3 separate experiments is shown.
# FRB-PLF = FRB-PLF (Homo sapiens, UniProt P42345+P62942, K2095P/T2098L/W2101F); details: cited from earlier work
# Chain of FRB-PLF (P42345 2012-2144 K2095P/T2098L/W2101F): as the sequence (P42345 2012-2144 T2098L limits assumed) above, with K84P, W90F counted along it
# Chain of FRB-PLF (P62942 2-108): as the sequence (P62942 2-108 limits assumed) above
# [3] = target: wt FRB (K2095 T2098 W2101) (Homo sapiens, UniProt P42345+P62942); details: cited from earlier work
# Chain of wt FRB (K2095 T2098 W2101) (P42345 2012-2144 limits assumed): as the sequence (P42345 2012-2144 T2098L limits assumed) above, with L87T counted along it
# Chain of wt FRB (K2095 T2098 W2101) (P62942 2-108 limits assumed): as the sequence (P62942 2-108 limits assumed) above
# FRB-KTF = FRB-KTF (Homo sapiens, UniProt P42345+P62942, W2101F); details: cited from earlier work
# Chain of FRB-KTF (P42345 2012-2144 W2101F limits assumed): as the sequence (P42345 2012-2144 T2098L limits assumed) above, with L87T, W90F counted along it
# Chain of FRB-KTF (P62942 2-108 limits assumed): as the sequence (P62942 2-108 limits assumed) above
# HEK293T/16 cells = assay: Secreted alkaline phosphatase (SEAP)-based surrogate killing assay of iCasp9 mutants; assay type: cell-based, human; details: for basal activity: relative SEAP activity Units: no AP1903; for Basal Activity (relative to wild type/unmodified Caspase-9): SEAP assay without AP1903
# primary T cells = assay: AP1903-dependent cytotoxicity in primary T cells transduced with iCasp9 variants; assay type: cell-based, human; details: for killing of target T cells within 10 days: AP1903 at day 0 and day 4; for sensitivity to AP1903 in primary T cells: mostly single copy, 24-hour assay
# Description: The effects of various caspase polypeptides at mostly single copy in primary T cells was assayed. This may reflect more accurately how these suicide genes will be used therapeutically.
# Primary T cells from healthy donors (n=6) were transduced with retrovirus encoding mutant or wild-type iCasp9 or iCasp9-D330A, and the ΔCD19 cell surface marker. Following transduction, iCasp9-transduced T cells were purified using CD19-microbeads and a magnetic column.
molecule,measurement,setting,value
C7-isobutyloxyrapamycin,CAR-T cells with FwtFRBC9/MC.FvFv,Raji-GFP cells,cause cell death
same,EC50 / concentration stimulating NF-κB reporter activity via MC-Rap,NF-κB; MC-rap-CAR construct pBP1440,subnanomolar
same,EC50,"NF-κB; iRMC (KLW, wild-type FKBP12, MyD88, CD40), read-out: EC50, NF-κB activity via iRMC",< 1 nM
same,MC activity (secreted IL-6) in MC-rap-T cells,[1],strongly responsive
same,tumor cell control by MC-rap containing CAR-T cells,HPAC PSCA+ tumor cells,able to control tumor cells as effectively as rimiducid stimulated iMC
same,activation of apoptosis at high concentrations,transduced T cells; over 100 fold above the level used to activate MC-rap,insufficient to activate apoptosis
same,affinity for mutant FRB domain KLW,FRBL,subnanomolar affinity
same,binds FRBL at concentrations lower than wild-type FRB in mTOR,FRBL,20 fold
Q-LEHD-OPh (QLEHD-OPh),level not toxic to the T cells,transduced T cells,> 100 µM
same,concentration efficiently inhibiting caspase-9 activation by iC9 and iRC9,transduced T cells; 20 nM of the respective activating ligands,≤ 4 µM
COC(=O)C[C@H](NC(=O)[C@H](C)NC(=O)[C@@H](NC(=O)OCc1ccccc1)C(C)C)C(=O)CF [zVAD-fmk] (Cbz-Val-Ala-Asp(OMe)-CH2F),effect on CID-induced apoptosis,[2],inhibited
CO[C@@H]1C[C@H](C[C@@H](C)[C@@H]2CC(=O)[C@H](C)/C=C(\C)[C@@H](O)[C@@H](OC)C(=O)[C@H](C)C[C@H](C)/C=C/C=C/C=C(\C)[C@H](OC(C)C)C[C@@H]3CC[C@@H](C)[C@@](O)(O3)C(=O)C(=O)N3CCCC[C@H]3C(=O)O2)CC[C@H]1O [R-Isopropoxyrapamycin],EC50,FRB-PLF,~8.5 nM
same,EC50,[3],~300 nM
S-Butanesulfonamidorap [S-Butanesulfonamidorap (AP23050)],EC50,[3],~2.7 nM
same,EC50,FRB-KTF,> 200 nM
B1,basal activity: relative SEAP activity Units,HEK293T/16 cells; 1 μg iCasp9 per million cells,179081 Units
same,basal activity: relative SEAP activity Units,HEK293T/16 cells; 2 μg iCasp9 per million cells,175529 Units
same,Basal Activity (relative to wild type/unmodified Caspase-9),HEK293T/16 cells,lower basal signaling; also recorded: lowered basal activity; also recorded: consistently lower basal activity; also recorded: lower basal activity than D330A; also recorded: very low basal activity; also recorded: Decreased
same,killing of target T cells within 10 days,primary T cells,indistinguishable from wild type
same,sensitivity to AP1903 in primary T cells,primary T cells,less sensitive to AP1903
B2,basal activity: relative SEAP activity Units,HEK293T/16 cells; 1 μg iCasp9 per million cells,148928 Units
same,basal activity: relative SEAP activity Units,HEK293T/16 cells; 2 μg iCasp9 per million cells,136863 Units
same,Basal Activity (relative to wild type/unmodified Caspase-9),HEK293T/16 cells,lowered basal signaling; also recorded: lowered basal activity; also recorded: less basal activity than wild type Caspase-9; also recorded: Decreased
same,IC50 of AP1903 in transduced T cells versus wild-type iCasp9,"primary T cells; AP1903 0-100 nM, 24 hours, 6 donors",significantly lower
same,sensitivity to AP1903 in primary T cells,primary T cells,more sensitive to AP1903 at low titers; also recorded: more sensitive to AP1903 than the wild type
B3,Basal Activity (relative to wild type/unmodified Caspase-9),HEK293T/16 cells,lowered basal activity; also recorded: Decreased
same,killing of target T cells within 10 days,primary T cells,indistinguishable from wild type
